Results reported in patent US9414597B2, “Pesticidal mixtures including spiroheterocyclic pyrrolidine diones” (Syngenta Participations AG, priority 2011, dated 2016).
“And” between values parts separate entries of the source, which are not always exact repeats. Equal entries are not always repeated.

How the values were obtained:
[1] = tested on: Tetranychus urticae (Two-Spotted Spider Mite); test: Tetranychus urticae feeding/contact activity, preventive (bean leaf discs); assay type: in vivo
From the text: (§1) The action to be expected E for a given active ingredient combination obeys the so-called COLBY formula and can be calculated as follows (COLBY, S. R. “Calculating synergistic and antagonistic responses of herbicide combination”. Weeds, Vol. 15, pages 20-22; 1967): • ppm=milligrams of active ingredient(=a.i.) per liter of spray mixture • X=% action by active ingredient A) using p ppm of active ingredient • Y=% action by active ingredient B) using q ppm of active ingredient.
(§2) According to COLBY, the expected (additive) action of active ingredients A)+B) using p+q ppm of active ingredient is
(§3) If the action actually observed (O) is greater than the expected action (E), then the action of the combination is super-additive, i.e. there is a synergistic effect. In mathematical terms the synergism factor SF corresponds to O/E. In the agricultural practice an SF of ≧1.2 indicates significant improvement over the purely complementary addition of activities (expected activity), while an SF of ≦0.9 in the practical application routine signals a loss of activity compared to the expected activity.
Tetranychus urticae (Two-Spotted Spider Mite):
feeding/contact activity, preventive
Bean leaf discs on agar in 24-well microtiter plates are sprayed with the DMSO test solutions. After drying, the leaf discs are infested with mite populations of mixed ages. […] (1 PPM=1 mg l^−1)

[2] = tested on: Myzus persicae (Green Peach Aphid); test: Myzus persicae feeding/residual contact activity, preventive (sunflower leaf discs); assay type: in vivo
From the text: as §1, §2, §3
Myzus persicae (Green Peach Aphid):
feeding/residual contact activity, preventive
Sunflower leaf discs are placed on agar in a 24-well microtiter plate and sprayed with the DMSO test solutions. After drying, the leaf discs are infested with an aphid population of mixed ages. […] (1 PPM=1 mg l^−1)

[3] = single active, 50 PPM AI, after 5 days
[4] = single active, 6.25 PPM AI, after 5 days
[5] = single active, 12.5 PPM AI, after 5 days

`CNC(=O)c1cc(Cl)cc(C)c1NC(=O)c1cc(Br)nn1-c1ncccc1Cl` [Chlorantraniliprol] was tested, and the “AVERAGE DEAD IN % AFTER 5 DAYS” value ([1]; Chlorantraniliprol alone, PPM AI r6:200 r7:400 r8:800) was 25% and 37%.
`CN1COCN(Cc2cnc(Cl)s2)/C1=N\[N+](=O)[O-]` [Thiamethoxam, thiamethoxam] was tested, and the “AVERAGE DEAD IN % AFTER 5 DAYS” value ([2]; Thiamethoxam alone, 0.8 PPM AI) was 0%, the “AVERAGE DEAD IN % AFTER 5 DAYS” value ([1]; Thiamethoxam alone, PPM AI r6:50 r7:100 r8:200 r9:400 r10:100 r11:200 r12:400) was 0% and the “AVERAGE DEAD IN % AFTER 5 DAYS” value [1, 3] was 0%. The “AVERAGE DEAD IN % AFTER 5 DAYS” value ([1]; single active, 100 PPM AI, after 5 days) was 0%, the “AVERAGE DEAD IN % AFTER 5 DAYS” value ([1]; single active, 200 PPM AI, after 5 days) was 0% and the “AVERAGE DEAD IN % AFTER 5 DAYS” value ([1]; single active, 400 PPM AI, after 5 days) was 0%. The “AVERAGE DEAD IN % AFTER 5 DAYS” value ([1]; single active, 800 PPM AI, after 5 days) was 37%.
For spinetoram, the “AVERAGE DEAD IN % AFTER 5 DAYS” value ([2]; Spinetoram alone, 100 PPM AI) was 0%, the “AVERAGE DEAD IN % AFTER 5 DAYS” value [1, 4] was 0% and the “AVERAGE DEAD IN % AFTER 5 DAYS” value [1, 5] was 25%. The “AVERAGE DEAD IN % AFTER 5 DAYS” value ([1]; single active, 25 PPM AI, after 5 days) was 80% and the “AVERAGE DEAD IN % AFTER 5 DAYS” value [1, 3] was 95%.
abamectin was tested, and the “AVERAGE DEAD IN % AFTER 5 DAYS” value ([1]; Abamectin alone, PPM AI r6:0.00625 r7:0.0125 r8:0.025 r9:0.05 r10:0.1) was 0%.
emamectin benzoate was tested, and the “AVERAGE DEAD IN % AFTER 5 DAYS” value ([2]; Emamectin Benzoate alone, PPM AI r7:12.5 r8:25 r9:50 r10:100 r11:200) was 0%, the “AVERAGE DEAD IN % AFTER 5 DAYS” value ([2]; Table 46, Emamectin Benzoate alone, 12.5 PPM AI) was 0% and the “AVERAGE DEAD IN % AFTER 5 DAYS” value ([2]; Table 46, Emamectin Benzoate alone, 25 PPM AI) was 0%. For the same molecule, the “AVERAGE DEAD IN % AFTER 5 DAYS” value ([2]; Table 46, Emamectin Benzoate alone, 50 PPM AI) was 0%, the “AVERAGE DEAD IN % AFTER 5 DAYS” value ([2]; Table 46, Emamectin Benzoate alone, 100 PPM AI) was 0% and the “AVERAGE DEAD IN % AFTER 5 DAYS” value ([2]; Table 46, Emamectin Benzoate alone, 200 PPM AI) was 0%. For the same molecule, the “AVERAGE DEAD IN % AFTER 5 DAYS” value ([1]; Emamectin Benzoate alone, 0.05 PPM AI) was 0% and the “AVERAGE DEAD IN % AFTER 5 DAYS” value ([1]; Emamectin Benzoate alone, PPM AI r7:0.1 r8:0.05 r9:0.025 r10:0.0125 r11:0.00625) was 0%.
With `CCOC(=O)OC1=C(c2c(C)cc(Cl)cc2C)C(=O)NC12CCN(OC)CC2` [Compound T1iii.055] the “AVERAGE DEAD IN % AFTER 5 DAYS” value ([2]; T1iii.055 alone, 12.5 PPM AI) was 0%, the “AVERAGE DEAD IN % AFTER 5 DAYS” value ([2]; T1iii.055 alone, 25 PPM AI) was 0% and the “AVERAGE DEAD IN % AFTER 5 DAYS” value ([2]; T1iii.055 alone, PPM AI r6:200 r7:100 r8:50 r9:25, 25 ppm active ingredient) was 50%. The “AVERAGE DEAD IN % AFTER 5 DAYS” value ([2]; T1iii.055 alone, PPM AI r6:200 r7:100 r8:50 r9:25, 200 ppm active ingredient) was 80%, the “AVERAGE DEAD IN % AFTER 5 DAYS” value ([2]; T1iii.055 alone, PPM AI r7:200 r8:100 r9:50) was 0% and the “AVERAGE DEAD IN % AFTER 5 DAYS” value ([1]; T1iii.055 alone, 12.5 PPM AI) was 0%. The “AVERAGE DEAD IN % AFTER 5 DAYS” value ([1]; single active, 1.56 PPM AI, after 5 days) was 0%, the “AVERAGE DEAD IN % AFTER 5 DAYS” value ([1]; single active, 3.125 PPM AI, after 5 days) was 0% and the “AVERAGE DEAD IN % AFTER 5 DAYS” value [1, 4] was 0%. For the same molecule, the “AVERAGE DEAD IN % AFTER 5 DAYS” value [1, 5] was 0%.
In the case of `Cc1nn(C)c(/C(OC(=O)C(C)(C)C)=C(\C#N)c2ccc(C(C)(C)C)cc2)c1C` [Cyenopyrafen, cyenopyrafen], the “AVERAGE DEAD IN % AFTER 5 DAYS” value ([2]; Cyenopyrafen alone, 200 PPM AI) is reported as 0%, the “AVERAGE DEAD IN % AFTER 5 DAYS” value ([1]; Cyenopyrafen alone, 1.5 PPM AI) is reported as 0% and the “AVERAGE DEAD IN % AFTER 5 DAYS” value ([1]; single active, 1.5 PPM AI, after 5 days) is reported as 0%. The “AVERAGE DEAD IN % AFTER 5 DAYS” value ([1]; single active, 3 PPM AI, after 5 days) was 40%, the “AVERAGE DEAD IN % AFTER 5 DAYS” value ([1]; single active, 6 PPM AI, after 5 days) was 85% and the “AVERAGE DEAD IN % AFTER 5 DAYS” value ([1]; single active, 12 PPM AI, after 5 days) was 92%.
